Reference: patent US20220104495A1, “THEOPHYLLINE DERIVATIVES WITH NEMATOCIDAL ACTIVITY, THEIR AGRONOMIC COMPOSITIONS AND RELATIVE USE” (ISAGRO S.p.A., priority 2019, published 2022)

Test system: Meloidogyne sp.
Experiment: Determination of the nematocidal activity against Meloidogyne sp. (potted tomato, greenhouse)
Format: in vivo
Conditions: for PLANT DEVELOPMENT (fresh weight g) / INFESTED ROOT % / GALL INDEX (scale 0-10) / reduction in parasitosis at the root level (in words): tomatoes, cv Marmande; for PLANT DEVELOPMENT (fresh weight g) / INFESTED ROOT % / GALL INDEX (scale 0-10): dose 4,000 g/hectare, survey 30 days after transplantation; for PLANT DEVELOPMENT (fresh weight g): infested blank 13; for INFESTED ROOT %: infested blank 70; for GALL INDEX (scale 0-10): Bridge-Page scale, 0 = 0% of root affected, 10 = 100% infested root, infested blank 7; for reduction in parasitosis at the root level (in words): 4,000 g/hectare, 30 days, comment on Table 6
Procedure: The tests aimed at testing the nematocidal activity of the product under examination are carried out using inocula taken from a cultivation of Meloidogyne sp. maintained on potted tomato and cucumber plants and grown in a greenhouse.
In order to carry out the experiments, portions of roots having a large number of galls and soil are taken from the infested pots, in which larvae are present starting from the second stage of age.
New pots having a diameter of 15 cm are half-filled with sterile earth. The portions of infested roots, previously cleaned, are placed on it to be able to correctly assess the degree of infestation and ensure that each pot contains the same nematic charge. 200-300 g of infested soil are then added, which are covered with a thin layer of sterile earth.
The treatment is carried out by pouring 100 ml of hydroacetonic solution onto the surface of the soil in which the product to be tested has been dissolved to obtain a concentration ranging from 70 to 100 ppm.
Tomato or cucumber seedlings at the stage of two or three actual leaves are transplanted in the pots thus prepared, after one or seven days from the application. Different cultivars of tomatoes (Microtom, Marmande) or cucumbers (Lungo della Cina) are used, having a different sensitivity to the parasite and different times of growth. In particular, for estimating the final production, a variety of ornamental tomatoes (cv Microtom) is used, whose seedlings are small in size and able to reach the maturity of the fruit in about two months in pots and under greenhouse conditions.
The containment capacity of the parasite is detected, 30 and 60 days after the transplantation, considering the development of the plant (whose fresh weight is detected) and the presence of galls on the roots.
This is estimated using both the infestation scale proposed by Bridge-Page (Tropical Pest Management 26 (3): 296-298, September 1980), according to which the value zero corresponds to 0% of root affected and the value 10 corresponds to 100% of infested root, and also considering the percentage of root mass affected.
Table 6 indicates the results relating to the effectiveness of Compounds Nr.

For `Cn1c(=O)c2c(ncn2C)n(C)c1=O` [Caffeine, caffeine, reference compound], the “nematocidal activity of caffeine as verified by the Applicant (in words)” value (attack of the parasite and formation of galls on the root system, conditions not given) was “unsatisfactory from the point of view of nematocidal activity”, the “PLANT DEVELOPMENT (fresh weight g)” value was 12 g and the “INFESTED ROOT %” value was 70%.
For `Cn1c(=O)c2c(ncn2CC[S+]([O-])CCC(F)=C(F)F)n(C)c1=O` (centres unmarked) [Comp. Nr. 8, 1,3-dimethyl-7-[2-(3,4,4-trifluorobut-3-ene-1-sulfinyl)ethyl]-3,7-dihydro-1H-purin-2,6-dione], the “GALL INDEX (scale 0-10)” value was 5, the “PLANT DEVELOPMENT (fresh weight g)” value was 17 g and the “INFESTED ROOT %” value was 50%.
`Cn1c(=O)c2c(ncn2CCS(=O)(=O)CCC(F)=C(F)F)n(C)c1=O` [Comp. Nr. 11, 1,3-dimethyl-7-[2-(3,4,4-trifluorobut-3-ene-1-sulfonyl)ethyl]-3,7-dihydro-1H-purin-2,6-dione] was tested, and the “reduction in parasitosis at the root level (in words)” value was “decisive reduction in parasitosis at the root level”, the “GALL INDEX (scale 0-10)” value was 4.5 and the “PLANT DEVELOPMENT (fresh weight g)” value was 16 g. For the same compound, the “INFESTED ROOT %” value was 45%.
With `Cn1c(=O)c2c(ncn2CC(=O)OCCC(F)=C(F)F)n(C)c1=O` [Comp. Nr. 21, 3,4,4-trifluorobut-3-en-1-yl (1,3-dimethyl-2,6-dioxo-1,2,3,6-tetrahydro-7H-purin-7-yl) acetate] the “reduction in parasitosis at the root level (in words)” value was “decisive reduction in parasitosis at the root level”, the “GALL INDEX (scale 0-10)” value was 2 and the “PLANT DEVELOPMENT (fresh weight g)” value was 20 g. For the same compound, the “INFESTED ROOT %” value was 20%.
